# Assay results taken from ChEMBL document CHEMBL1201862, “PubChem BioAssay data set” (2004).
# Calls of active or inactive are those of the source.
# Columns and labels:
# [1] = target: T1, Ubiquitin-conjugating enzyme E2 N (Homo sapiens, UniProt P61088); format: functional;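 note: Dose-response confirmation in a TR-FRET assay detecting UBC13-driven polyubiquitin chain formation, inhibition measured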
# T1 sequence (P61088 whole entry): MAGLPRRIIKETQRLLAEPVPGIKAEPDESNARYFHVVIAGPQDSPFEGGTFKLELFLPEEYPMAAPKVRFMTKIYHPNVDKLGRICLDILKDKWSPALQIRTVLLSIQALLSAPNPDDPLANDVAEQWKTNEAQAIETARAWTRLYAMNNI
# [2] = cytotoxicity in HEK-293T cells, dose response, cytotoxicity control for BCR NF-kB inhibitor project, luminescence, B-cell screen hits (AID 489021); format: functional, cell-based;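 note: HEK-293T cells carrying an NF-kB luciferase reporter; cells exposed to compound for about 14 hours before viability readout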
# [3] = target: T2, Short transient receptor potential channel 4 (Mus musculus, UniProt Q9QUQ5); experiment: mouse TRPC4 channel inhibitors, dose response, cell-based, HEK293 TRPC4/mu-opioid, Fluo-4 calcium (AID 434942); format: functional;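 note: potency of inhibitors blocking the TRPC4 calcium response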
# T2 sequence (Q9QUQ5 whole entry): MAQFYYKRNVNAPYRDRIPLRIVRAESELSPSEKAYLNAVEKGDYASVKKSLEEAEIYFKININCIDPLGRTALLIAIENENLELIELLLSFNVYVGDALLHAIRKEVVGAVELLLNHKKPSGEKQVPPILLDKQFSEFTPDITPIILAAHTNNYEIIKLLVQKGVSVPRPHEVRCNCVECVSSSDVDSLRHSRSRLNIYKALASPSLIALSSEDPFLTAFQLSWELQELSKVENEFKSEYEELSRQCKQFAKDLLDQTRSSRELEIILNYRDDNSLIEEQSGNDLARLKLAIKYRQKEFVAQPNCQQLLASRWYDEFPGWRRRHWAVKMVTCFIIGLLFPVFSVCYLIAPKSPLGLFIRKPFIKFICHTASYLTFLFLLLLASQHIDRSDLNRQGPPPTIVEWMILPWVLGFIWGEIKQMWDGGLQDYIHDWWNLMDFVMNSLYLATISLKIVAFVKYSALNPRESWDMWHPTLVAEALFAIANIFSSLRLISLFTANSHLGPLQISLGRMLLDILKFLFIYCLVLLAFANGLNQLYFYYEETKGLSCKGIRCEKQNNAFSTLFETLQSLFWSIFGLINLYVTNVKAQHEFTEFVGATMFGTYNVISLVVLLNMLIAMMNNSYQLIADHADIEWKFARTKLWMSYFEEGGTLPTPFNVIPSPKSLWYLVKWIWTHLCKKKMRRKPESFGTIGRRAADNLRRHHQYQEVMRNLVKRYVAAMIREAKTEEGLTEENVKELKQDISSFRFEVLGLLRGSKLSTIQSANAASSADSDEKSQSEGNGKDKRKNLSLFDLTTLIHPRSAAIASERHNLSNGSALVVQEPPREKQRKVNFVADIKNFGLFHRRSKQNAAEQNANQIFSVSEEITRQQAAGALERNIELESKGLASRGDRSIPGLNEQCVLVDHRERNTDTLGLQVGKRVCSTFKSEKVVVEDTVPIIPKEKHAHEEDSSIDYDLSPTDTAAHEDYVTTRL
# [4] = cytotoxicity toward NIH3T3 fibroblasts, dose response, counter-screen, cell-based, ATP luminescence, mouse fibroblasts (AID 2010); format: functional;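 note: cells exposed to compound for about 90 hours before reading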
# [5] = inhibitors of intracellular T. cruzi replication, confirmation, NIH3T3 host cells, beta-gal luminescence (AID 2044); format: functional, cell-based;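 note: intracellular parasites grown in NIH/3T3 mouse fibroblasts as host cells; luminescent beta-galactosidase reporter signal from transgenic T. cruzi replicating inside host cells; inhibitors lower the luminescence signal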
# [6] = NIH-3T3 fibroblast cytotoxicity, dose response, cytotoxicity control, cell-based, fluorescence, Alamar Blue, secondary assay (AID 2327); format: functional;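 note: NIH-3T3 mouse fibroblasts cultured with fluconazole at 8 µg/mL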
# [7] = inhibitors of SNCA 5'UTR-driven reporter translation, confirmation, H4 neuroglioma cells, luminescence (AID 1988); format: functional, cell-based
# [8] = inhibitors of firefly luciferase expression or activity, dose response, H4 neuroglioma cells, luminescence (AID 1990); format: functional, cell-based
# [9] = Luminescence Cell-Based Dose Response HTS to Identify Inhibitors of 5'UTR Stem-Loop Driven Prion Protein mRNA Translation in H4 Neuroglioblastoma Cells. [Related pubchem assays: 1827 (Project Summary), 1813 (Primary HTS)]; format: functional
# [10] = target: T3, Heat shock factor protein 1 (Mus musculus, UniProt P38532); experiment: inhibition of MG132-induced HSE-luciferase signal, confirmation, cell-based, NIH3T3, luminescence, dose retest (AID 2382); format: functional;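 note: NIH3T3 fibroblasts with HSF1-driven luciferase reporter stressed by proteasome inhibitor MG132; luminescence from HSF1-driven luciferase expression after 8 hours of MG132 stress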
# T3 sequence (P38532 whole entry): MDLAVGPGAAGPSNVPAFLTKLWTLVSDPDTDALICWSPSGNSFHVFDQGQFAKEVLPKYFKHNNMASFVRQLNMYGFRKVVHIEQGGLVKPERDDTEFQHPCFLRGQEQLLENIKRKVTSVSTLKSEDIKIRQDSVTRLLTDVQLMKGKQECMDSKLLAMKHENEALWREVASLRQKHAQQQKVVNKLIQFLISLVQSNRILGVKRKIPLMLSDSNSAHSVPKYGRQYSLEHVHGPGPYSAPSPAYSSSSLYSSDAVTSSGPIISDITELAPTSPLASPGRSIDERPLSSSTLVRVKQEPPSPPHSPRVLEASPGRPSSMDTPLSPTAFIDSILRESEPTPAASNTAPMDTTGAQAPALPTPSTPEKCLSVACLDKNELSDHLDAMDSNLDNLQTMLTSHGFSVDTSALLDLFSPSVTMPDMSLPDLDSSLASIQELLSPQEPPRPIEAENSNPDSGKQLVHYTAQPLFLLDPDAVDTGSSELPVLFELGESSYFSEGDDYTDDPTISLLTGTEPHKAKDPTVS
# [11] = target: T4, Calpain-2 catalytic subunit (Sus scrofa, UniProt P43367); experiment: pig calpain II inhibitor potency, dose response, biochemical, fluorogenic peptide substrate (AID 1420); format: functional
# T4 sequence (P43367 whole entry): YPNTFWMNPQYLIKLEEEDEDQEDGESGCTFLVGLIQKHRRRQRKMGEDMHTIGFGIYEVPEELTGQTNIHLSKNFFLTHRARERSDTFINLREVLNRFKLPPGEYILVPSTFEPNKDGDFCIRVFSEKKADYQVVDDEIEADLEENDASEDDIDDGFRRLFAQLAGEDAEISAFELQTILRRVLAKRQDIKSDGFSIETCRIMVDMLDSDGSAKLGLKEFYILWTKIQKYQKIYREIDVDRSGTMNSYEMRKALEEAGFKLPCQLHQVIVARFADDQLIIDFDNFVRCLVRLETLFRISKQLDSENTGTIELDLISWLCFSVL
# [12] = target: T3, Heat shock factor protein 1; experiment: HSF1 potentiators in luciferase reporter cells, confirmation, cell-based, NIH3T3, luminescence, dose retest (AID 435004); format: functional;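 note: stress induced by proteasome inhibitor MG132 added 30 min after compound; luciferase reporter driven by HSF1 response element in NIH3T3 cells; actives raise luminescence as potentiators of the MG132 stress response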
structure (smiles),measurement,setting,value
O=C(CCCN1C(=O)/C(=C/c2ccccc2Cl)SC1=S)NNC(=O)c1ccc(Cl)cc1,IC50,[1],> 20 µM (inactive)
same,IC50,[2],> 80 µM (inactive)
Cc1cccc2cc(CN(CCCN(C)C)C(S)=NCCc3ccccc3)c(O)nc12,EC50,[3],4.22 µM (active)
same,EC50,[4],> 30 µM (not active)
same,EC50,[5],690 nM (active)
Cc1c(CCOC(=O)CC23CC4CC(CC(C4)C2)C3)sc[n+]1Cc1ccccc1,EC50,[3],5.96 µM (active)
same,EC50,[6],> 160 µM (inactive)
CC1CCN(CCCOc2ccc(OCc3ccccc3)cc2)CC1,EC50,[3],0.531 µM (active)
Cc1cccc(C(=O)Nc2ccc(CC(=O)O)cc2)c1,EC50,[7],28.5 µM (active)
same,EC50,[8],12.9 µM (active)
same,EC50,[9],16.9 µM (active)
same,IC50,[2],> 80 µM (inactive)
C#Cc1ccc(CN2CCCC(C(=O)Nc3ccccc3Oc3cccnc3)C2)cc1 (centres undefined),EC50,[3],1.68 µM (active)
COc1ncnc2sc3c(c12)CCCC3,EC50,[3],5.96 µM (active)
O=C(CCCc1nc(-c2ccccc2Cl)no1)NC1CCCC1,EC50,[7],0.606 µM (active)
same,EC50,[8],0.822 µM (active)
same,EC50,[9],5.93 µM (active)
same,IC50,[2],> 80 µM (inactive)
same,EC50,[10],> 195 µM (not active)
CCN(CC)c1ncnc2scc(C3COc4ccccc4O3)c12 (centres undefined),EC50,[3],5.31 µM (active)
same,IC50,[11],10.3 µM (not active)
COc1ccc(/C=C2\SC(=S)N(CCC(=O)Nc3cccc(O)c3)C2=O)cc1,EC50,[12],58.8 µM (active)
same,IC50,[2],> 80 µM (inactive)
O=C(COC(=O)c1c(Cl)cccc1Cl)Nc1ccccc1Br,EC50,[3],1.33 µM (active)
